The values that follow come from patent publication US8101606B2, “Neurofibromin pathway modulators” (Washington University, priority 2007, dated 2012).

Entries after “also recorded” stand apart in the source; their conditions may differ.

The subject of experiment [1] is mTOR pathway activation (S6 phosphorylation). As to the kind of experiment: S6 phosphorylation (mTOR pathway activation) in neurofibromin 1 deficient astrocytes, phospho-specific antibodies. The experiment is classed as cell-based, mouse. The conditions noted are these: Nf1-/- astrocytes; concentration not given. The text has this: Evidence exists for direct activation of mTOR signaling by Akt as well as indirect activation of mTOR by Akt through the tuberous sclerosis complex (TSC)/Rheb pathway. Studies have shown that the mTOR activation resulting from neurofibromin loss in astrocytes can be reversed by restoring NF1-GAP activity (NF1 GRD), blocking K-RAS activity (K-RASN17), or inhibiting PI-3K activation of Akt.

For experiment [2], the system named is S6 activation. The experiment is described as follows: S6 activation in Tsc1-deficient astrocytes. It is filed as cell-based. The text has this:
FIG. 8 depicts images showing that Rheb pharmacologic inhibition blocks mTOR pathway activation in Tsc1-deficient, but not neurofibromin 1 deficient, astrocytes.
In each case, the abnormal Tsc1^−/− and neurofibromin 1^−/− astrocyte phenotypes were reversed by mTOR inhibition (rapamycin treatment). […] These studies provide preliminary evidence for a TSC/Rheb-independent mechanism.

Take `CSCC[C@H](NC(=O)c1ccc(NC[C@@H](N)CS)cc1-c1ccccc1)C(=O)O` [FTI-276]: the “S6 activation / phosphorylation (mTOR pathway activation)” value in experiment [1] is on record as “did not reduce S6 hyperactivation; also recorded: no effect on S6 activity”. Moreover, the S6 activation entry in experiment [2] is reported as “effectively blocks S6 activation; also recorded: reduced S6 activation”.
